Data on three molecules can be found in patent US20020128176A1, “Treatment of erectile dysfunctions with C-Type natriuretic polypeptide (CNP) as a monotherapy or in combination with phosphodiesterase inhibitors” (priority 1999, published 2002).

For series [1], the system named is smooth muscle of the human corpus cavernosum penis. Nature of the series: Functional organ bath studies: relaxation of norepinephrine-precontracted strip preparations of human cavernous muscles. The procedure:
Functional organ bath studies:
Strip preparations of human cavernous muscles were fixed in the bath chambers of an organ bath plant (Isolated Organ Apparatus IOA 5306, Föhr Medical Instruments GmbH, Seeheim, Germany) filled with a modified Krebs-Ringer solution (NaCl 120 mM, NaHCO3 25.6 mM, KCl 4.7 mM, CaCl2 2.5 mM, NaH2PO4 1.2 mM, MgCl2 1.2 mM, glucose 22 mM, 2Na^+ (Ca^2+) EDTA 0.1 mM, pH 7.2-7.4). The temperature of the bath solution was controlled to 37° C., and a mixture of […] O2 and 5% CO2 was continuously sparkled through the solution. The application of a passive bias tension of 5 mN (0.5 g) was followed by an equilibration phase of 60 min. Subsequently, the muscle strips were stimulated with 6 μM norepinephrine (NOR). After a stable contraction plateau was reached, the peptides human atrial natriuretic peptide/cardiodilatin (ANP/CDD99-126) (for a survey, see Forssmann et al., 1998) and human C-type natriuretic peptide (CNP) (Ogawa et al., 1992), which are chemically synthesized in our laboratory, were added with cumulative dosage (0.01 to 1000 nM). Changes in the mechanical tension of the muscles were recorded with an analog-digital measured data acquisition system (MacLab®, AD Instruments, Castle Hill, Australia).

Series [2] is described as follows: Tests made with male patients: induction of erection. To be noted: for erection / time for which the erection was maintained: male patients. Type of series: in vivo, human.

Where no end group is shown, it is not given here.

For the molecule “C-type natriuretic polypeptide (GLSKGCFGLKLDRIGSMSGLGC) [CNP, ligand of guanylate cyclase B]”, the “concentration from which a significant relaxant effect is seen” value in series [1] (strips precontracted with 6 μM norepinephrine, cumulative dosage 0.01 to 1000 nM) worked out at 1 nM. Further, in series [2] (intracavernous application), the erection entry is “immediate erection” and the “time for which the erection was maintained” value was “about one”. In series [2] (intravenous application), the erection entry is recorded as “immediate erection” and the “time for which the erection was maintained” value was “about one”.
Take “human atrial natriuretic peptide/cardiodilatin (SLRRSSCFGGRMDRIGAQSGLGCNSFRY; ends and bridges not checked; cysteine pairing not given here) [ANP/CDD99-126, Chemically synthesized peptide, the ligand of guanylate cyclase A, reference compound]”: the “relaxation of precontracted smooth muscle (in words)” value in series [1] (at corresponding concentrations (1 nM to 1 μM), precontracted with 6 μM norepinephrine) is “no significant relaxation”.
Take `CCCc1nn(C)c2c(=O)[nH]c(-c3cc(S(=O)(=O)N4CCN(C)CC4)ccc3OCC)nc12` [Sildenafil, reference compound]: the “necessary dose for the induction of an erection” value in series [2] (combined, simultaneous application of CNP) is on record as “significantly decreased”. In addition, the “side-effects (flickering in the eyes or headaches)” value in series [2] (some subjects, combined application with CNP versus exclusive Sildenafil treatment) is listed as “reduced, in part to complete disappearance”.
